Calls of active or inactive are those of the source.
Legend:
[1] = target: Phospholipase A2 (Homo sapiens, UniProt P04054); type: functional;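 also: confirmatory dose-response counterscreen on phospholipase A2, testing hits that came from an ultra-high-throughput screen for ATG4B inhibitors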
[2] = target: T1, Cysteine protease ATG4B (Homo sapiens, UniProt Q9Y4P1); type: functional;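 also: Fluorescence-based dose-response confirmation assay measuring inhibition of ATG4B activity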
T1 sequence (Q9Y4P1 whole entry): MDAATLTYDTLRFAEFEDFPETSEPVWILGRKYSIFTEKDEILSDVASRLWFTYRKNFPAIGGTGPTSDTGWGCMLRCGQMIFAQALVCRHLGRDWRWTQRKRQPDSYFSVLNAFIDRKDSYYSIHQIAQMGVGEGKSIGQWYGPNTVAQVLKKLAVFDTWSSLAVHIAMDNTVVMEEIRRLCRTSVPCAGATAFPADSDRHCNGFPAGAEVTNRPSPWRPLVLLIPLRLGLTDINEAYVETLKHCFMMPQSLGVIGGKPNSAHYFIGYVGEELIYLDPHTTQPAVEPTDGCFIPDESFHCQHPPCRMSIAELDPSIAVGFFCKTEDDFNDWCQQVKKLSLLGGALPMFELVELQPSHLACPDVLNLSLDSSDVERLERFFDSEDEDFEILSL

[3] = target: 5-hydroxytryptamine receptor 2A (Mus musculus, UniProt P35363); type: functional, cell-based;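 also: CHO-K1 cells with tagged receptor and beta-arrestin; agonist potency measured as compound-induced activation of the receptor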
Sequence of 5-hydroxytryptamine receptor 2A (P35363 whole entry): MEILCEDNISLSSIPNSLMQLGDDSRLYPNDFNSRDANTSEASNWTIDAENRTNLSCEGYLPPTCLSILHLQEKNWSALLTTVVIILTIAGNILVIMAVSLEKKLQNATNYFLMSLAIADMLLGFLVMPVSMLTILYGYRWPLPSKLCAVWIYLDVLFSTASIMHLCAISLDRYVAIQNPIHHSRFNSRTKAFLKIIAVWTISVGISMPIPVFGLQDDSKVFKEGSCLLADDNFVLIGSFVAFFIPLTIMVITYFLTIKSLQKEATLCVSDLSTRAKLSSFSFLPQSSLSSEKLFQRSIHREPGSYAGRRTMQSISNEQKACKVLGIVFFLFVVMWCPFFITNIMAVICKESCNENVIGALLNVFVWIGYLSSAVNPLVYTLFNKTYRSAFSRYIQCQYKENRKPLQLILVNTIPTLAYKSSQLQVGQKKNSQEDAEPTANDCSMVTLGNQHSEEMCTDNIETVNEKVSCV

[4] = target: Mu-type opioid receptor (Homo sapiens, UniProt P35372); type: functional, cell-based;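 also: U2OS cells with beta-arrestin recruitment to OPRM1 by beta-gal complementation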
Sequence of Mu-type opioid receptor (P35372 whole entry): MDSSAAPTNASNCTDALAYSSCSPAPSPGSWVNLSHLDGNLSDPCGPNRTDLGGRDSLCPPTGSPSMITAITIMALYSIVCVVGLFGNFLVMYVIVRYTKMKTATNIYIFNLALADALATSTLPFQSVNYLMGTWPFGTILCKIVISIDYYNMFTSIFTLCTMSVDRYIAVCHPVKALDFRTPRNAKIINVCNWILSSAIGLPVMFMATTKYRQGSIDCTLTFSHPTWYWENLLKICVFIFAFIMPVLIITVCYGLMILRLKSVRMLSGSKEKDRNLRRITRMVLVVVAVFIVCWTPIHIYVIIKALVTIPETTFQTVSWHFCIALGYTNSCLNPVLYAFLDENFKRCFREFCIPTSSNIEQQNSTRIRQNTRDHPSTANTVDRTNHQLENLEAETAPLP

[5] = tested on: BJ; assay: growth inhibition of engineered Ras-driven BJ cells – cell-based, alamar blue fluorescence, cherrypicked samples, dose response (AID 2631); type: functional; details: Homo sapiens;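 also: confirmatory dose-response assay in RAS-dependent BJ fibroblasts engineered with TERT, LT and ST, with cytotoxicity read by fluorescence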
[6] = DRD fibroblast viability loss – cell-based, non-viral oncogenic, luminescence, dose response (AID 1934); type: functional; details: Homo sapiens
[7] = tested on: BJ; assay: cells; type: functional, cell-based; details: Homo sapiens
[8] = Luminescence Cell-Based Dose Confirmation HTS to Identify Inhibitors of Platelet Dense Granule Release. [Related pubchem assays: 1663 (Primary HTS), 1678 (Summary of Project)]; type: functional
[9] = target: DNA (cytosine-5)-methyltransferase 1 (Homo sapiens, UniProt P26358); assay: inhibition of DNA methylation by DNMT1 – biochemical, fluorescent molecular beacon, confirmation (AID 602386); type: functional
[10] = tested on: BJ; assay: BJ-TERT fibroblast viability loss – cell-based, RAS-independent, luminescence, dose response (AID 1933); type: functional; details: Homo sapiens
[11] = target: Luciferin 4-monooxygenase (Photinus pyralis, UniProt P08659); assay: inhibition of purified Photinus pyralis luciferase – biochemical, luminescence, dose response (AID 1891)
Sequence of Luciferin 4-monooxygenase (P08659 whole entry): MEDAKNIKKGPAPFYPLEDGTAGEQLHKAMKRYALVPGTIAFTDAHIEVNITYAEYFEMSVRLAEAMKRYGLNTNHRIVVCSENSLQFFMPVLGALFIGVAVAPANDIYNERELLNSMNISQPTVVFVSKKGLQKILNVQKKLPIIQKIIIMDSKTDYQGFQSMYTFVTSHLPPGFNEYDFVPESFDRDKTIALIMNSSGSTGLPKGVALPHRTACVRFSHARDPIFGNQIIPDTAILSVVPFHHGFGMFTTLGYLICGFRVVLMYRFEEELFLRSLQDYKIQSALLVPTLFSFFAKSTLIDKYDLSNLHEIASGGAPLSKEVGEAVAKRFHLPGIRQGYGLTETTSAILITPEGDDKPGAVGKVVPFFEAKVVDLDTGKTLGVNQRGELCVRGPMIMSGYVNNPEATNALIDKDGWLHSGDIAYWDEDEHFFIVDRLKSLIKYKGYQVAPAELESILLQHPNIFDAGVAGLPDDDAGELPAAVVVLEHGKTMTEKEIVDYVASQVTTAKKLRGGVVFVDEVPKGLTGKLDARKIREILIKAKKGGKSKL

[12] = Luminescence Cell-Based Dose Retest to Confirm Inhibitors of Cancer Stem Cells. [Related pubchem assays (depositor defined):AID2717, AID2721]; type: functional; details: Homo sapiens
[13] = tested on: BJ; assay: BJ-TERT-LT-ST fibroblast viability loss – cell-based, RAS-independent, luminescence, dose response (AID 1935); type: functional; details: Homo sapiens;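 also: BJ fibroblasts immortalized with TERT plus LT and ST oncogenes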
[14] = Vero cell cytotoxicity, cytotoxicity control for M. tuberculosis inhibitor project, purified and synthesized samples, set 3 (AID 504684); type: functional
[15] = target: T2, Interleukin-8 (Homo sapiens, UniProt P10145); assay: Dose Response confirmation of uHTS small molecule hits for cystic fibrosis induced NFkb Inhibitors in a PAF-induced IL8 counterscreen.; type: functional; details: read-out: IC50_Mean
T2 sequence (P10145 whole entry): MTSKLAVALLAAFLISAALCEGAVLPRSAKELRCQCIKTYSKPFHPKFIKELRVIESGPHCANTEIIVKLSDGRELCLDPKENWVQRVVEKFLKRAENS

[16] = reduced cellular PGC1a acetyl-lysine signal – cell-based, cherry-picked samples, dose response (AID 720514); type: functional;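 also: potency may reflect raised or lowered acetylation signal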
[17] = target: T3, Dual specificity protein phosphatase 3 (Homo sapiens, UniProt P51452); assay: VHR phosphatase inhibition, dose response, selectivity assay for STEP inhibitor project, biochemical (AID 602374); type: functional; details: read-out: IC50_Mean
T3 sequence (P51452 whole entry): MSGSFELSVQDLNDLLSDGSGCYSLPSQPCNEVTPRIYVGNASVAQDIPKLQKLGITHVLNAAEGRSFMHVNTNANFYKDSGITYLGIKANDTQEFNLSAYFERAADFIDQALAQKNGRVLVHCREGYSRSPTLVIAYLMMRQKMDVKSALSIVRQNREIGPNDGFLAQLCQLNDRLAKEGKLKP

[18] = target: T3, Dual specificity protein phosphatase 3; assay: VHR1 phosphatase inhibitors, biochemical (AID 1878)
[19] = target: T4, Dual specificity protein phosphatase 6 (Rattus norvegicus, UniProt Q64346); assay: inhibition of rat DUSP6 enzyme activity – biochemical, in vitro, primary screen (AID 425)
T4 sequence (Q64346 whole entry): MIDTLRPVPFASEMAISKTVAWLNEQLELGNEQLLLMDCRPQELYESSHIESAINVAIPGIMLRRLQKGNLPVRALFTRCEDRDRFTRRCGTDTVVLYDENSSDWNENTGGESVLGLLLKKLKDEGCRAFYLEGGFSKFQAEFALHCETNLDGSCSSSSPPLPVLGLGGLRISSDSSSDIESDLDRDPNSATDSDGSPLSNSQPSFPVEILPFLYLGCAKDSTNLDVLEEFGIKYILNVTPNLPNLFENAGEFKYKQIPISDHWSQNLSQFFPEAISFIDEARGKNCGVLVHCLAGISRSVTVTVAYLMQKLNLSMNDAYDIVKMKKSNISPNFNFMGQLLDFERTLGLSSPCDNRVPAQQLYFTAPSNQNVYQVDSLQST

[20] = target: Tyrosine-protein phosphatase non-receptor type 11 (Homo sapiens, UniProt Q06124); assay: PTPN11 enzyme inhibitors – biochemical, selectivity assay for STEP inhibitor project, dose response (AID 602367); type: functional; details: read-out: IC50_Mean
Sequence of Tyrosine-protein phosphatase non-receptor type 11 (Q06124 whole entry): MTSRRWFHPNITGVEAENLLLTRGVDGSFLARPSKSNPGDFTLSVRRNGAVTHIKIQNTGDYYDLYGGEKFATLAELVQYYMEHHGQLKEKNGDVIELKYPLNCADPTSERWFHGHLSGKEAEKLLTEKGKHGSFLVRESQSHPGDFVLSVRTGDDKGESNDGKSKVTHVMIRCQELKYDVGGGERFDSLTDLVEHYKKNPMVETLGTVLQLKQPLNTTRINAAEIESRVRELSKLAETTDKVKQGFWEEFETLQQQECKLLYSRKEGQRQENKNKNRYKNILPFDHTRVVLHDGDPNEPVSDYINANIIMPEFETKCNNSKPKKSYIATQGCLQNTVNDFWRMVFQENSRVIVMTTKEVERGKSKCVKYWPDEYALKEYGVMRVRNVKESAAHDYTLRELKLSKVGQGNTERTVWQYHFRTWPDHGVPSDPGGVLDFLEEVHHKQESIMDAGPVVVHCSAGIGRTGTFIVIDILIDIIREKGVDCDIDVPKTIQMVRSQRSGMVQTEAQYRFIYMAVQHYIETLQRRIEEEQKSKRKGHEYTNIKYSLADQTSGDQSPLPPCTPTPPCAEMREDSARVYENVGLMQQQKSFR

[21] = target: T3, Dual specificity protein phosphatase 3; assay: VHR1 phosphatase inhibitors, primary screen, biochemical, absorbance, uHTS (AID 1654)
[22] = target: Tyrosine-protein phosphatase non-receptor type 5 (Homo sapiens, UniProt P54829); assay: PTPN5 enzyme inhibition – biochemical, fluorescence intensity, uHTS hits, confirmation (AID 602372); type: functional; details: read-out: IC50_Mean
Sequence of Tyrosine-protein phosphatase non-receptor type 5 (P54829 whole entry): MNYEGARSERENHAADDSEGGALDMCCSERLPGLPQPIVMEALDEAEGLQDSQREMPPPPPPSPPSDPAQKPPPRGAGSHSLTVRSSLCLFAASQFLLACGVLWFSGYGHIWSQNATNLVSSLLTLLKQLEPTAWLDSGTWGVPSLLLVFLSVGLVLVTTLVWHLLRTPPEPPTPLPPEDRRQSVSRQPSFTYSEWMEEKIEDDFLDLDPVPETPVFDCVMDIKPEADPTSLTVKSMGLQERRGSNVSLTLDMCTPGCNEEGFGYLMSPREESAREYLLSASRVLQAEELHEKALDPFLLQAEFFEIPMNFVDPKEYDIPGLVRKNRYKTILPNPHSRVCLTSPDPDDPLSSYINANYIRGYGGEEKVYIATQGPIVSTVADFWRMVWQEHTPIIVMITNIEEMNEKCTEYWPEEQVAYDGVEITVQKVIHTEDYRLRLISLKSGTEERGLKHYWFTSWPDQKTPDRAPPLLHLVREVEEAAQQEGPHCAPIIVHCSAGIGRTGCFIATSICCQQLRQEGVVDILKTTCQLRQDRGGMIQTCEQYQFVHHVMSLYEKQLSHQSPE

[23] = target: Ras and Rab interactor 1/Tyrosine-protein kinase ABL1 (Homo sapiens, UniProt P00519+Q13671); type: functional;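 also: biochemical TR-FRET dose-response test measuring inhibition of binding between Rin1 and Abl proteins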
Sequence of Ras and Rab interactor 1/Tyrosine-protein kinase ABL1 (P00519 whole entry): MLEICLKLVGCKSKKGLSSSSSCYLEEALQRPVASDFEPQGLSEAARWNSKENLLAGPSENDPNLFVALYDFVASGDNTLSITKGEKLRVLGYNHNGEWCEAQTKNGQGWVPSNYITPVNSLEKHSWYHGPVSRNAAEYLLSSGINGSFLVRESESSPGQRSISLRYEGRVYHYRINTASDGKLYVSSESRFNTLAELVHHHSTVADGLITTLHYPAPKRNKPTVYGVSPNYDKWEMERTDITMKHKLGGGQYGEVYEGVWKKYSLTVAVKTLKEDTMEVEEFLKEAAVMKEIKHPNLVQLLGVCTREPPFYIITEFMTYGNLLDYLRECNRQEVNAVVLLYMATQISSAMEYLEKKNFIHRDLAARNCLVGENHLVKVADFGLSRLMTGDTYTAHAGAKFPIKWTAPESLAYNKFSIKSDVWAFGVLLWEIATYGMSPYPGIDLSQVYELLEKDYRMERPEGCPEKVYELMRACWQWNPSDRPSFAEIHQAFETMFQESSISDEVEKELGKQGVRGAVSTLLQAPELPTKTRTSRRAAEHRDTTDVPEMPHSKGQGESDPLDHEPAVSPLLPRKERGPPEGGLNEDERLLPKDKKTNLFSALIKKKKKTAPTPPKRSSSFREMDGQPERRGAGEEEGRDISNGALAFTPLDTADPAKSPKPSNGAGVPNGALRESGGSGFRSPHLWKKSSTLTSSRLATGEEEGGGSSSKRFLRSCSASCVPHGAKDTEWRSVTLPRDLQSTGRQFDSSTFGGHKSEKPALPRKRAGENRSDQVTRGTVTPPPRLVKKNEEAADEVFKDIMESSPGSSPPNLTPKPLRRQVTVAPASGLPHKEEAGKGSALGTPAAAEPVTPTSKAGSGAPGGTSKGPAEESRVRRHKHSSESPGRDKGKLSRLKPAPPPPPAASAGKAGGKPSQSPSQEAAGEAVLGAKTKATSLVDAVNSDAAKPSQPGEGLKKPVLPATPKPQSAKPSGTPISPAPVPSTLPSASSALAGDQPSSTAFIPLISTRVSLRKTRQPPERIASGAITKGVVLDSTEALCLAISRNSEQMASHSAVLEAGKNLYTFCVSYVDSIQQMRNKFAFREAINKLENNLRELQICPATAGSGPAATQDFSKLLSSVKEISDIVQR
Sequence of Ras and Rab interactor 1/Tyrosine-protein kinase ABL1 (Q13671 whole entry): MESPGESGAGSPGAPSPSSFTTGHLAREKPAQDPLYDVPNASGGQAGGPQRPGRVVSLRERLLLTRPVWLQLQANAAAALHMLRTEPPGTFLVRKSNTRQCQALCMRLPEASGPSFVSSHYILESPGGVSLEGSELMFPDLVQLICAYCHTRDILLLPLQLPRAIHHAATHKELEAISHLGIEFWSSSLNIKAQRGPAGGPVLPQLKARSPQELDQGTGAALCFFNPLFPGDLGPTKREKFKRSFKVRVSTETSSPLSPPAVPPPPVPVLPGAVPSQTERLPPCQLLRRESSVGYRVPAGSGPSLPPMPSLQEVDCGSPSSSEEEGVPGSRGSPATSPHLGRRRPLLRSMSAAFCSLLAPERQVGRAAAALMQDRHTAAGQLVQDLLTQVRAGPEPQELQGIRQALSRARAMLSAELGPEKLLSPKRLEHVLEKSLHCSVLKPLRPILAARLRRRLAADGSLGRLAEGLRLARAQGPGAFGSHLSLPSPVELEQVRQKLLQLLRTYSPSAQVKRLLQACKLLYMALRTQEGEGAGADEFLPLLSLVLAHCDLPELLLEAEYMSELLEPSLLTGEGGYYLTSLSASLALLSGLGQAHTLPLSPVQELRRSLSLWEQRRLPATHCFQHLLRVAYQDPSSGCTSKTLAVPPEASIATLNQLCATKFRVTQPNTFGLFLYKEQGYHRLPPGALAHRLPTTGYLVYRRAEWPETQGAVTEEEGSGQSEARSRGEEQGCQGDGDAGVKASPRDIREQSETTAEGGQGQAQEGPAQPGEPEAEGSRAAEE

Sequence of Phospholipase A2 (P04054 whole entry): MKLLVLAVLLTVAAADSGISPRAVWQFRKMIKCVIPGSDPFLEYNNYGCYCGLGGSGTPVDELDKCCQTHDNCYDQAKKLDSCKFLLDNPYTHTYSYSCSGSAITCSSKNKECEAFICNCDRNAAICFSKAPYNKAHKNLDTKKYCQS

## COC(=O)c1c(NC(=O)C2Cc3ccccc3C(=O)O2)sc2c1CCCC2 (centres undefined)
[1]
  IC50: 1.02 µM (active)
[2]
  IC50: 1.62 µM (active)

## CNCC(=O)c1ccc(O)c(O)c1 [ADRENALONE]
[3]
  EC50: 4.04 µM (active)
[4]
  EC50: 92.4 µM (inactive)

## O=C(Oc1ccc(-c2nc(-c3ccccn3)no2)cc1)c1ccccc1
[5]
  EC50: > 133 µM (inactive)
[6]
  EC50: 3.96 µM (active)
[7]
  EC50: 3.19 µM (active)
[8]
  EC50: 475 nM (active)
[9]
  IC50: > 99 µM (inactive)
[10]
  EC50: 4.55 µM (active)
[11]
  EC50: 421 nM (active)
[12]
  AC50: 2.63 µM (active)
[13]
  EC50: 16.8 µM (active)

## Cc1ccc(NC(=O)C2C3/C=C\CCCCC32)cc1C (centres undefined)
[14]
  CC50: > 100 µM (active)

## Nc1ncnc(NCc2ccc(F)cc2)c1[N+](=O)[O-]
[15]
  IC50: > 79 µM (inactive)
[16]
  AC50: 3.1 µM (active)

## COC(=O)Nc1sc2c(c1C(N)=O)CCC(C)C2 (centres undefined)
[17]
  IC50: 312 nM (active)
[18]
  IC50: 3.56 µM (active)
[19]
  IC50: > 158 µM (not active)
[20]
  IC50: 1.81 µM (active)
[21]
  IC50: 1.9 µM (active)
[22]
  IC50: 4.65 µM (active)

## Cc1ccc(C2N(c3cccc(Cl)c3)C(=O)N3CCCN23)cc1 (centres undefined)
[23]
  IC50: 11.1 µM (inactive)

## CC[C@]12c3[nH]c4ccc(OC)cc4c3CCN1C(=O)C(CC(=O)NCC13C[C@H]4C[C@@H](C1)C[C@@H](C3)C4)C[C@@H]2C(=O)N1CCN(C(=O)C2CC2)CC1 (some centres undefined)
[23]
  IC50: 12.9 µM (inactive)

Source: ChEMBL document CHEMBL1201862, “PubChem BioAssay data set” (2004)
